Changes are numbered by the printed parent chain.
Legend:
hT1R1 H71A = molecular target: T1, hT1R1 H71A (Homo sapiens, UniProt Q7RTX1, H71A); assay: Mutagenesis study, hT1R1 mutant H71A; assay type: cell-based; conditions: H71 mutation
T1 construct: expressed in transfected cells; host or cells: HEK293, transient transfection
T1 sequence (Q7RTX1 21-841 H71A): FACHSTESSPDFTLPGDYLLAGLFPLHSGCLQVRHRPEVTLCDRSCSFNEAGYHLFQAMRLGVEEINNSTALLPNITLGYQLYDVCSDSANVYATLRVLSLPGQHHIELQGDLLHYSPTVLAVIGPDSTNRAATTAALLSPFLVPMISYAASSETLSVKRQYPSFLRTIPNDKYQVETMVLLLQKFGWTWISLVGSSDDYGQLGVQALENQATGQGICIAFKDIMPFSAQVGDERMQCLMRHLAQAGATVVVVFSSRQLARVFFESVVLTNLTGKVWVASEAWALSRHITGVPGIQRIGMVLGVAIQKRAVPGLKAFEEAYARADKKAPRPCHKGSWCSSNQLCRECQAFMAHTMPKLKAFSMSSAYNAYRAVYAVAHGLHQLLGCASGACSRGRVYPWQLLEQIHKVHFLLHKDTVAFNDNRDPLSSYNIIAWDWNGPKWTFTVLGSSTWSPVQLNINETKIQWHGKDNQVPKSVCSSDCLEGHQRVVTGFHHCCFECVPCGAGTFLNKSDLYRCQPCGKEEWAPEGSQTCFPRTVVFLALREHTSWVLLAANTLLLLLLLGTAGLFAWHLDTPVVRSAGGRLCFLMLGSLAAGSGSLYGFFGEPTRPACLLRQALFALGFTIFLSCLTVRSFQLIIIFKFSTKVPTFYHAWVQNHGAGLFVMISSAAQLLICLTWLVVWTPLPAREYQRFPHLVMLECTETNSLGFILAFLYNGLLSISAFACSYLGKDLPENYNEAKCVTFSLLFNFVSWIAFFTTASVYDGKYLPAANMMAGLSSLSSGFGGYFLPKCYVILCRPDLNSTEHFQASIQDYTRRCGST
T1 sequence (Q923K1 21-858 partner): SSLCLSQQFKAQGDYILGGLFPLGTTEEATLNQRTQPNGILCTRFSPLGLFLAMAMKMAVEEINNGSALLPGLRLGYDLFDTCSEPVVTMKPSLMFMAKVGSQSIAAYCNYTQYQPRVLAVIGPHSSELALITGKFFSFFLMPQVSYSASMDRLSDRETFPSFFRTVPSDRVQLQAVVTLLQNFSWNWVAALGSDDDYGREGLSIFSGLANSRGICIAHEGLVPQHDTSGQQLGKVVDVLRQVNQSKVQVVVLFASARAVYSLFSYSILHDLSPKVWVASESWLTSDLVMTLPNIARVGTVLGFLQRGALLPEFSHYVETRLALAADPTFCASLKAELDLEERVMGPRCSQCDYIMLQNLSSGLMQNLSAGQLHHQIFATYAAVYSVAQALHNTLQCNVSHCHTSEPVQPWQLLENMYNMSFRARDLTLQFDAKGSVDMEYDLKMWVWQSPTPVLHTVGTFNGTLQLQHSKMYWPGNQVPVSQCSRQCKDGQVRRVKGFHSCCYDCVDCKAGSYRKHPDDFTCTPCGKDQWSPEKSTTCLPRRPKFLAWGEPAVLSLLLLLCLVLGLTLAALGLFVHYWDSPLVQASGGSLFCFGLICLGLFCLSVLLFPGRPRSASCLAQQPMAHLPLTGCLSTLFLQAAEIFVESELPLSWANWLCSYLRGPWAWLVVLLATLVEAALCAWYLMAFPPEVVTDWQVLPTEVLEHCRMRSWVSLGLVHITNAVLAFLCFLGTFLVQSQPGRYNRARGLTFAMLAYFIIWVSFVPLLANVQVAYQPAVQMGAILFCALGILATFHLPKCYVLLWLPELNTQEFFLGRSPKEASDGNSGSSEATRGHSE
Text: (§1) In order to further define the interaction sites of umami stimuli, we performed site-directed mutagenesis on human T1R1 VFT. The mutagenesis was done using the routine PCR-based method. […] were transiently transfected into HEK293 cell together with the rat T1R3 wild type cDNA, and the transfected cells were characterized using an automated FLIPR machine or a calcium imaging system as described in our previous patent applications.

hT1R1 T149S = molecular target: T2, hT1R1 T149S (Homo sapiens, UniProt Q7RTX1, T149S); assay: Mutagenesis study, hT1R1 mutant T149S; assay type: cell-based; conditions: 0.25 mM of L-Glu, FIG. 12
T2 construct: expressed in transfected cells; host or cells: HEK293, transient transfection
T2 sequence (Q7RTX1 21-841 T149S): T1 sequence (Q7RTX1 21-841 H71A) with A51H, T129S
T2 sequence (Q923K1 21-858 partner): T1 sequence (Q923K1 21-858 partner)
Text: as §1

Row | Compound | enhancement activity of GMP (hT1R1 H71A) | activity against L-Glu compared to the wild type (hT1R1 T149S)
1 | Nc1nc2c(ncn2[C@@H]2O[C@H](COP(=O)(O)O)[C@@H](O)[C@H]2O)c(=O)[nH]1 [GMP, guanosine-5′-monophosphate] | similarly affected | –
2 | N[C@@H](CCC(=O)O)C(=O)O [L-Glu, L-glutamate] | – | increased activity

Source: patent US20080306076A1, “MODULATION OF CHEMOSENSORY RECEPTORS AND LIGANDS ASSOCIATED THEREWITH” (SENOMYX, INC., priority 2007, published 2008)
